# Results from PubChem BioAssay (NCI).
#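 Interpolation was linear, between the two tested concentrations surrounding the appropriate level; five concentrations were tested over 48 hours in 96-well plates. The concentration for full growth arrest is given as TGI.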
# Key:
# Assay in all cases: NCI tumour cell line growth inhibition, 48 h
# [1] = system: SR leukemia
# [2] = system: RXF 393 renal
# [3] = system: HOP-92 NSCLC
# [4] = system: SK-MEL-2 melanoma
# [5] = system: HCT-116 colon
# [6] = system: LOX IMVI melanoma
# [7] = system: RPMI-8226 leukemia
# [8] = system: SNB-19 CNS
# [9] = system: A498 renal
# [10] = system: COLO 205 colon
# [11] = system: OVCAR-3 ovarian
# [12] = system: HT29 colon
# [13] = system: UACC-62 melanoma
# [14] = system: SF-295 CNS
# [15] = system: M14 melanoma
# [16] = system: U251 CNS
# [17] = system: EKVX NSCLC
# [18] = system: HCC-2998 colon
# [19] = system: TK-10 renal
# [20] = system: KM12 colon
# [21] = system: SK-OV-3 ovarian
# [22] = system: A549 NSCLC
# [23] = system: NCI/ADR-RES ovarian
# [24] = system: UO-31 renal
# [25] = system: ACHN renal
# [26] = system: OVCAR-8 ovarian
# [27] = system: NCI-H522 lung
# [28] = system: T-47D breast
# [29] = system: MDA-MB-231 breast
# [30] = system: PC-3 prostate
# [31] = system: SF-268 CNS
# [32] = system: OVCAR-5 ovarian
# [33] = system: BT-549 breast
# [34] = system: SN12C renal
# [35] = system: 786-0 renal
# [36] = system: MOLT-4 leukemia
# [37] = system: SNB-75 CNS
# [38] = system: HOP-62 NSCLC
# [39] = system: MCF7 breast
# [40] = system: NCI-H460 lung
# [41] = system: CCRF-CEM leukemia
# [42] = system: NCI-H23 lung
# [43] = system: DU-145 prostate
# [44] = system: HCT-15 colon
# [45] = system: SK-MEL-28 melanoma
# [46] = system: IGROV1 ovarian
# [47] = system: MDA-N
# [48] = system: NCI-H226 lung
# [49] = system: MDA-MB-435
# [50] = system: SW-620 colon
# [51] = system: SK-MEL-5 melanoma
# [52] = system: HS 578T breast
# [53] = system: UACC-257 melanoma
# [54] = system: SF-539 CNS
# [55] = system: K-562 leukemia
# [56] = system: CAKI-1 renal
# [57] = system: HL-60(TB) leukemia
# [58] = system: OVCAR-4 ovarian
# [59] = system: MALME-3M melanoma
structure (smiles),measurement,setting,value
Cn1c2ccccc2c(=S)c2ccccc21,TGI,[1],> 100 µM
same,TGI,[2],> 100 µM
same,TGI,[3],> 100 µM
same,TGI,[4],> 100 µM
same,TGI,[5],> 100 µM
same,TGI,[6],> 100 µM
same,TGI,[7],> 100 µM
same,TGI,[8],> 100 µM
same,TGI,[9],> 100 µM
same,TGI,[10],> 100 µM
same,TGI,[11],> 100 µM
same,TGI,[12],> 100 µM
same,TGI,[13],> 100 µM
same,TGI,[14],> 100 µM
same,TGI,[15],> 100 µM
same,TGI,[16],> 100 µM
same,TGI,[17],> 100 µM
same,TGI,[18],> 100 µM
same,TGI,[19],> 100 µM
same,TGI,[20],> 100 µM
same,TGI,[21],> 100 µM
same,TGI,[22],> 100 µM
same,TGI,[23],> 100 µM
same,TGI,[24],> 100 µM
same,TGI,[25],> 100 µM
same,TGI,[26],> 100 µM
same,TGI,[27],> 100 µM
same,TGI,[28],> 100 µM
same,TGI,[29],> 100 µM
same,TGI,[30],> 100 µM
same,TGI,[31],> 100 µM
same,TGI,[32],> 100 µM
same,TGI,[33],> 100 µM
same,TGI,[34],> 100 µM
same,TGI,[35],> 100 µM
same,TGI,[36],> 100 µM
same,TGI,[37],> 100 µM
same,TGI,[38],> 100 µM
same,TGI,[39],> 100 µM
same,TGI,[40],> 100 µM
same,TGI,[41],> 100 µM
same,TGI,[42],> 100 µM
same,TGI,[43],> 100 µM
same,TGI,[44],> 100 µM
same,TGI,[45],> 100 µM
same,TGI,[46],> 100 µM
same,TGI,[47],> 100 µM
same,TGI,[48],> 100 µM
same,TGI,[49],> 100 µM
same,TGI,[50],> 100 µM
same,TGI,[51],> 100 µM
same,TGI,[52],> 100 µM
same,TGI,[53],> 100 µM
same,TGI,[54],> 100 µM
same,TGI,[55],> 100 µM
same,TGI,[56],> 100 µM
OCC(CN1CCCCC1)(CN1CCCCC1)CN1CCCCC1,TGI,[1],> 100 µM
same,TGI,[2],> 100 µM
same,TGI,[57],> 100 µM
same,TGI,[3],> 100 µM
same,TGI,[58],> 100 µM
same,TGI,[5],> 100 µM
same,TGI,[6],> 100 µM
same,TGI,[8],> 100 µM
same,TGI,[9],> 100 µM
same,TGI,[10],> 100 µM
same,TGI,[11],> 100 µM
same,TGI,[12],> 100 µM
same,TGI,[13],> 100 µM
same,TGI,[15],> 100 µM
same,TGI,[16],> 100 µM
same,TGI,[17],> 100 µM
same,TGI,[18],> 100 µM
same,TGI,[19],> 100 µM
same,TGI,[20],> 100 µM
same,TGI,[21],> 100 µM
same,TGI,[22],> 100 µM
same,TGI,[23],> 100 µM
same,TGI,[24],> 100 µM
same,TGI,[25],> 100 µM
same,TGI,[26],> 100 µM
same,TGI,[27],> 100 µM
same,TGI,[28],> 100 µM
same,TGI,[29],> 100 µM
same,TGI,[30],> 100 µM
same,TGI,[31],> 100 µM
same,TGI,[32],> 100 µM
same,TGI,[59],> 100 µM
same,TGI,[33],> 100 µM
same,TGI,[34],> 100 µM
same,TGI,[35],> 100 µM
same,TGI,[36],> 100 µM
same,TGI,[38],> 100 µM
same,TGI,[39],> 100 µM
same,TGI,[40],> 100 µM
same,TGI,[41],> 100 µM
same,TGI,[42],> 100 µM
same,TGI,[43],> 100 µM
same,TGI,[44],> 100 µM
same,TGI,[45],> 100 µM
same,TGI,[46],> 100 µM
same,TGI,[47],> 100 µM
same,TGI,[48],> 100 µM
same,TGI,[49],> 100 µM
same,TGI,[50],> 100 µM
same,TGI,[51],> 100 µM
same,TGI,[52],> 100 µM
same,TGI,[53],> 100 µM
same,TGI,[54],> 100 µM
same,TGI,[55],> 100 µM
same,TGI,[56],> 100 µM
CC(C)=CCC[C@@H](C)C1=C(O)C(Nc2ccccc2Br)=C(C)C(=O)C1=O,TGI,[1],45 µM
same,TGI,[2],32.9 µM
same,TGI,[57],5.52 µM
same,TGI,[3],30.8 µM
same,TGI,[4],41.9 µM
same,TGI,[58],> 100 µM
same,TGI,[5],43.6 µM
same,TGI,[6],> 100 µM
same,TGI,[7],> 58.6 µM
same,TGI,[8],73 µM
same,TGI,[9],45.2 µM
same,TGI,[10],32.3 µM
same,TGI,[11],35.6 µM
same,TGI,[12],37 µM
same,TGI,[13],38.5 µM
same,TGI,[14],28.1 µM
same,TGI,[15],29.8 µM
same,TGI,[16],99.5 µM
same,TGI,[17],48.3 µM
same,TGI,[18],> 69.9 µM
same,TGI,[19],68.2 µM
same,TGI,[20],32.1 µM
same,TGI,[21],68 µM
same,TGI,[22],44.6 µM
same,TGI,[23],28.8 µM
same,TGI,[24],35.7 µM
same,TGI,[25],> 60.2 µM
same,TGI,[26],73 µM
same,TGI,[28],66.4 µM
same,TGI,[29],61.9 µM
same,TGI,[30],38.6 µM
same,TGI,[31],> 50.4 µM
same,TGI,[32],41.9 µM
same,TGI,[59],26 µM
same,TGI,[33],50.1 µM
same,TGI,[34],28.2 µM
same,TGI,[35],51.2 µM
same,TGI,[36],25.5 µM
same,TGI,[37],66.2 µM
same,TGI,[38],36.8 µM
same,TGI,[39],39.7 µM
same,TGI,[40],> 64.8 µM
same,TGI,[41],12.7 µM
same,TGI,[42],31.2 µM
same,TGI,[43],20.7 µM
same,TGI,[44],22.9 µM
same,TGI,[45],> 80.6 µM
same,TGI,[46],37.3 µM
same,TGI,[47],27.5 µM
same,TGI,[48],34.2 µM
same,TGI,[49],> 65.7 µM
same,TGI,[50],52.1 µM
same,TGI,[51],16.1 µM
same,TGI,[52],49.3 µM
same,TGI,[53],43.6 µM
same,TGI,[54],25.1 µM
same,TGI,[55],> 69.9 µM
same,TGI,[56],52.1 µM
CCc1n[nH]c(=S)n1/N=C\c1ccc(-c2ccccc2Cl)o1,TGI,[1],53.5 µM
same,TGI,[2],> 100 µM
same,TGI,[57],68 µM
same,TGI,[3],> 100 µM
same,TGI,[4],98 µM
same,TGI,[58],> 100 µM
same,TGI,[5],66.6 µM
same,TGI,[6],66.6 µM
same,TGI,[7],51.3 µM
same,TGI,[8],> 100 µM
same,TGI,[9],> 100 µM
same,TGI,[10],> 100 µM
same,TGI,[11],> 100 µM
same,TGI,[12],> 100 µM
same,TGI,[13],> 100 µM
same,TGI,[14],> 100 µM
same,TGI,[15],> 100 µM
same,TGI,[16],97.4 µM
same,TGI,[17],> 100 µM
same,TGI,[18],83.3 µM
same,TGI,[19],> 100 µM
same,TGI,[20],> 100 µM
same,TGI,[21],> 100 µM
same,TGI,[22],> 100 µM
same,TGI,[23],53.7 µM
same,TGI,[24],> 100 µM
same,TGI,[25],> 100 µM
same,TGI,[26],61.7 µM
same,TGI,[27],65.8 µM
same,TGI,[28],87.5 µM
same,TGI,[29],> 100 µM
same,TGI,[30],> 100 µM
same,TGI,[31],> 100 µM
same,TGI,[32],> 100 µM
same,TGI,[59],> 100 µM
same,TGI,[33],66.6 µM
same,TGI,[34],> 100 µM
same,TGI,[35],86.6 µM
same,TGI,[36],45.6 µM
same,TGI,[37],> 100 µM
same,TGI,[38],> 100 µM
same,TGI,[39],> 100 µM
same,TGI,[40],> 100 µM
same,TGI,[41],> 100 µM
same,TGI,[42],82 µM
same,TGI,[43],> 100 µM
same,TGI,[44],83.3 µM
same,TGI,[46],> 100 µM
same,TGI,[47],54.1 µM
same,TGI,[48],41.6 µM
same,TGI,[49],48.4 µM
same,TGI,[50],> 100 µM
same,TGI,[51],31.2 µM
same,TGI,[52],> 100 µM
same,TGI,[53],> 100 µM
same,TGI,[54],61.9 µM
same,TGI,[55],53.2 µM
same,TGI,[56],> 100 µM
